Source: PubChem BioAssay (NCI)
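Growth conditions: 96-well plates. Treatment: test compound, 48 hours, 5 concentrations. Analysis: linear interpolation between bracketing concentrations; unreached endpoints set to highest concentration. Here, GI50 denotes the concentration required for 50% inhibition of growth. TGI is the concentration that stops growth completely.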

What was measured:
Experiment in all cases: NCI-60 cell line screen, 48 h
[1] = test system: HL-60(TB) leukemia
[2] = test system: HOP-62 NSCLC
[3] = test system: MOLT-4 leukemia
[4] = test system: SK-MEL-5 melanoma
[5] = test system: SK-OV-3 ovarian
[6] = test system: SN12C renal
[7] = test system: SNB-19 CNS
[8] = test system: SNB-75 CNS
[9] = test system: TK-10 renal
[10] = test system: UACC-257 melanoma
[11] = test system: DMS 114 small cell lung

| SMILES | TGI [1] | TGI [2] | TGI [3] | TGI [4] | TGI [5] | TGI [6] | TGI [7] | TGI [8] | TGI [9] | TGI [10] | GI50 [1] | GI50 [3] | GI50 [4] | GI50 [5] | GI50 [6] | GI50 [8] | GI50 [9] | GI50 [10] | TGI [11] |
| --- | --- | --- | --- | --- | --- | --- | --- | --- | --- | --- | --- | --- | --- | --- | --- | --- | --- | --- | --- |
| Cc1ccc(Cl)cc1N=NC(=O)NNc1cc(Cl)ccc1C | > 100 µM | 23.6 µM | > 100 µM | 29.1 µM | 49.5 µM | 80.8 µM | 43.2 µM | 36.3 µM |  |  |  |  |  |  |  |  |  |  |  |
| CCOC(=O)NC(Nc1cc(Cl)ccc1OC)(C(F)(F)F)C(F)(F)F | > 100 µM | > 100 µM | > 100 µM | > 100 µM | > 100 µM | > 100 µM | > 100 µM | > 100 µM | > 100 µM | > 100 µM |  |  |  |  |  |  |  |  |  |
| COc1cccc2c1C(=O)c1c(O)c3c(c(O)c1C2=O)C[C@@](O)(C(=O)COC(=O)c1ccccc1)C[C@@H]3OC1CC(N)C(O)C(C)O1 (stereo partly drawn) | 0.69 µM |  | 0.275 µM | 0.712 µM | 1.44 µM | 1.12 µM |  | 0.738 µM | 0.879 µM | 1.27 µM | 0.0679 µM | 0.0302 µM | 0.2 µM | 0.264 µM | 0.0936 µM | 0.0762 µM | 0.151 µM | 0.262 µM |  |
| O=C(NN1C(=O)C(Cl)C1c1cccc([N+](=O)[O-])c1)c1ccccc1O (stereo not drawn) | > 100 µM | > 100 µM | > 100 µM | > 100 µM | > 100 µM | > 100 µM | > 100 µM | > 100 µM | > 100 µM | > 100 µM |  |  |  |  |  |  |  |  | > 100 µM |
| CCOC(=O)/C=C/c1c(C)[nH]c(=O)[nH]c1=O | > 250 µM | > 250 µM | > 250 µM | > 250 µM | > 141 µM | > 250 µM | > 250 µM | > 250 µM |  | > 250 µM |  |  |  |  |  |  |  |  | > 250 µM |
| C/C(=N\NC(=S)N1CCC(N2CCCCC2)CC1)c1ccccn1 | > 21 µM | > 19.8 µM | > 21 µM | 8.22 µM | 11.6 µM | 8.17 µM | 11.3 µM | 11.2 µM | 6.29 µM | 8.93 µM |  |  |  |  |  |  |  |  | 8.86 µM |
| O=C1C(CO)=C[C@H](O)[C@H]2O[C@@H]12 | 253 µM | > 612 µM | 355 µM | 389 µM | 561 µM | 265 µM | > 625 µM | 561 µM |  | 387 µM |  |  |  |  |  |  |  |  | 296 µM |
| c1ccc2c(c1)NCc1cc3ccccc3nc1O2 | > 100 µM | > 100 µM | > 100 µM | > 100 µM | > 100 µM | > 100 µM | > 100 µM | > 100 µM |  | > 100 µM |  |  |  |  |  |  |  |  | > 100 µM |
| c1ccc2c(c1)c1ccccc1n2Cn1c2ccccc2c2ccccc21 | > 100 µM | > 100 µM | > 100 µM | > 100 µM |  | > 100 µM | > 100 µM | > 100 µM | > 100 µM | > 100 µM |  |  |  |  |  |  |  |  |  |
| COc1cc(-c2ccc(N=Nc3ccc4c(S(=O)(=O)O)cc(S(=O)(=O)O)c(N)c4c3O)c(OC)c2)ccc1N=Nc1ccc2c(S(=O)(=O)O)cc(S(=O)(=O)O)c(N)c2c1O | > 62.6 µM | > 100 µM | > 100 µM | > 100 µM | > 100 µM | > 100 µM | > 100 µM | > 100 µM |  | > 100 µM |  |  |  |  |  |  |  |  | > 100 µM |
| O=C1CCC[C@H]2O[C@@H](COC(=O)c3ccccc3)C[C@H]2O1 | > 100 µM | > 100 µM | > 100 µM | > 100 µM | > 100 µM | > 100 µM | > 100 µM | > 100 µM |  | > 100 µM |  |  |  |  |  |  |  |  |  |
| c1cc2c3c(c1)c1cc4c(cc1c[n+]3CC2)OCO4 | 24.7 µM | 15.4 µM | 9.96 µM | 9.08 µM | 97.2 µM | 9.01 µM | 13.5 µM | 8.09 µM |  | 13.5 µM |  |  |  |  |  |  |  |  | 9.27 µM |
| O=C(N/N=C\c1cccc2ccccc12)Nc1ccccc1 |  | > 100 µM | > 100 µM | > 100 µM | > 100 µM | > 100 µM | > 100 µM | > 100 µM | > 100 µM | > 100 µM |  |  |  |  |  |  |  |  |  |
